Like-named read-outs stand apart in the source and are kept apart here. Blank lines part the entries; values can stand above or below the compound they belong to.
Experiments:
[1] = not given; remark: listed apart in the source
[2] = standard breakfast with GFJ; ref de Vries et al. [2015]; cited from earlier work
[3] = type: in vivo, human; conditions: for PCI-45227 mean AUClast / PCI-45227 mean Cmax / PCI-45227 tmax, median (range): fasted; for concentration at 2 h: rifampin plasma concentration, Study 2, day 11, 2 h after drug intake, rifampin 600 mg q.d.
[4] = test system: Bruton’s tyrosine kinase (BTK); conditions: reversible binding; ref Parmar et al. [2014]; cited from earlier work
[5] = Study 1, ibrutinib 120 mg alone, fasted
[6] = Study 1, ibrutinib 40 mg + ketoconazole 400 mg, fasted
[7] = Study 1, ibrutinib + ketoconazole vs ibrutinib alone
[8] = Study 2, ibrutinib 560 mg + rifampin 600 mg
[9] = Study 2, ibrutinib 560 mg alone

- mean DN_AUClast of ibrutinib (Study 1, ibrutinib 120 mg alone, day 1, fasted): 71.4 ng·h/mL
- mean DN_Cmax of ibrutinib (Study 1, ibrutinib 120 mg alone, day 1, fasted, healthy men): 11.8 ng/mL
- AUClast geometric mean [5]: 61 ng·h/mL
- AUC (human, in vivo, 120 mg): 56 ng·h/mL
- AUC(0-inf) (human, in vivo, 120 mg): 71 ng·h/mL
- AUCs of ibrutinib following i.v. administration with and without GFJ ([1]; Study 3, nonfasted, i.v. dose of 100 μg 13C6 PCI-32765): the same
- AUC ([1]; human, in vivo, 560 mg): 529 ng·h/mL
- AUC(0-inf) ([1]; human, in vivo, 560 mg): 643 ng·h/mL
- AUC(0-inf) ([3]; human, plasma, oral, 560 mg): 300 ng·h/mL
SMILES: C=CC(=O)N1CCC[C@@H](n2nc(-c3ccc(Oc4ccccc4)cc3)c3c(N)ncnc32)C1 [Ibrutinib, reference compound]
- absolute oral bioavailability (F) [2]: 15.9%

- PCI-45227 t1/2, mean (SD) [6]: 18.00 h
- PCI-45227 tmax, median (range) [6]: 4.00 h
- PCI-45227 DN_AUClast [5]: 304 ng·h/mL
- PCI-45227 DN_Cmax [5]: 29.1 ng/mL
- PCI-45227 t1/2, mean (SD) [5]: 11.41 h
- PCI-45227 tmax, median (range) [5]: 2.00 h
- mean metabolite to parent ratio for Cmax (Study 1, ibrutinib + ketoconazole): 0.05
- decrease of PCI-45227 DN_AUClast with ketoconazole [7]: 1.2 times lower
- decrease of PCI-45227 DN_Cmax with ketoconazole [7]: 2.6 times lower
- mean metabolite to parent ratio for Cmax (Study 1, ibrutinib alone): 2.64
- effect of GFJ on tmax of PCI-45227 ([1]; Study 3): no effect
- dose-normalized PCI-45227 concentrations and AUCs with or without GFJ ([1]; Study 3, oral ibrutinib): comparable
- Cmax metabolite-to-parent ratio ([1]; Study 3, with GFJ): 0.32
- Cmax metabolite-to-parent ratio ([1]; Study 3, without GFJ): 1.03
- PCI-45227 mean AUClast [3, 8]: 374 ng·h/mL
- PCI-45227 mean Cmax [3, 8]: 49.9 ng/mL
- PCI-45227 tmax, median (range) [3, 8]: 3.00 h
- PCI-45227 mean AUClast [3, 9]: 946 ng·h/mL
- PCI-45227 mean Cmax [3, 9]: 70.0 ng/mL
- PCI-45227 tmax, median (range) [3, 9]: 2.02 h
- metabolite to parent ratio for Cmax ([3]; Study 2, ibrutinib + rifampin): 20.80
- metabolite to parent ratio for Cmax ([3]; Study 2, ibrutinib alone): 2.09
SMILES: Nc1ncnc2c1c(-c1ccc(Oc3ccccc3)cc1)nn2[C@@H]1CCCN(C(=O)C(O)CO)C1 (stereo partly drawn) [PCI-45227]
- inhibitory activity toward BTK relative to ibrutinib [4]: approximately 15 times lower

- ketoconazole plasma concentration, two participants with very low concentrations (Study 1, day 7, individual values): 231 ng/mL
SMILES: CC(=O)N1CCN(c2ccc(OCC3COC(Cn4ccnc4)(c4ccc(Cl)cc4Cl)O3)cc2)CC1 (stereo not drawn) [ketoconazole, reference compound]

- concentration at 2 h ([3]; human, plasma, oral, mean ± SD): 9250 ± 4960 ng/mL
- concentration at 2 h ([3]; human, plasma, oral, range): 289 to 18400 ng/mL
SMILES: CO[C@H]1/C=C/O[C@@]2(C)Oc3c(C)c(O)c4c(O)c(c(/C=N/N5CCN(C)CC5)c(O)c4c3C2=O)NC(=O)/C(C)=C\C=C\[C@H](C)[C@H](O)[C@@H](C)[C@@H](O)[C@@H](C)[C@H](OC(C)=O)[C@@H]1C [rifampin, reference compound]
